Target: MAGL (Homo sapiens (Human), UniProt Q99685)
Experiment: In vitro competitive activity-based protein profiling (human prefrontal cortex membrane fractions, FP-Rh probe), MAGL band
Details: read-out: MAGL IC50 (μM) (human); human prefrontal cortex membrane fractions

Sequence of MAGL (Q99685 whole entry): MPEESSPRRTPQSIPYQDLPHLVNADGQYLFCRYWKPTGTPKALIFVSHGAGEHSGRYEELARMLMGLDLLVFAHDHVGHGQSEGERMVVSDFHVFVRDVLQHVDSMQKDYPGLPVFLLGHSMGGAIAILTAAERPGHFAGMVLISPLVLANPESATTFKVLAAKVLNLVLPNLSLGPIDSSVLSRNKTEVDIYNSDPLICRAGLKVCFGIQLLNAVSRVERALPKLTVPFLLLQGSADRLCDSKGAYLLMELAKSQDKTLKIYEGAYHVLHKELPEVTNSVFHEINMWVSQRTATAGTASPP

| IC50 [µM] | Compound |
| --- | --- |
| < 0.1 | O=C(O)c1ccn(C(=O)N2CCN(Cc3ccc(C(F)(F)F)cc3N3CCOCC3)CC2)n1 [Example 3, 1-(4-(2-Morpholino-4-(trifluoromethyl)benzyl)piperazine-1-carbonyl)-1H-pyrazole-3-carboxylic Acid] |
| < 0.1 | O=C(O)c1ccn(C(=O)N2CCC(OCc3cc(Cl)cc(Oc4ccc(Cl)cc4)c3)CC2)n1 [Example 27, 1-(4-((3-Chloro-5-(4-chlorophenoxy)benzyl)oxy)piperidine-1-carbonyl)-1H-pyrazole-3-carboxylic Acid] |
| < 0.1 | O=C(O)c1ccn(C(=O)N2CCC3(CCCN3Cc3cc(-n4cccn4)cc(C(F)(F)F)c3)CC2)n1 [Example 32, 1-(1-(3-(1H-pyrazol-1-yl)-5-(Trifluoromethyl)benzyl)-1,8-diazaspiro[4.5]decane-8-carbonyl)-1H-pyrazole-3-carboxylic Acid] |
| < 0.1 | NC(=O)c1ccn(C(=O)N2CC3CN(Cc4ccc(C5(C(=O)O)CCOCC5)cc4C(F)(F)F)CC3C2)n1 (stereo not drawn) [Example 35, 4-(4-((5-(3-carbamoyl-1H-pyrazole-1-carbonyl)hexahydropyrrolo[3,4-c]pyrrol-2(1H)-yl)methyl)-3-(trifluoromethyl)phenyl)tetrahydro-2H-pyran-4-carboxylic acid] |
| < 0.1 | O=C(O)c1ccn(C(=O)N2CCN(Cc3cccc(Oc4ccc(F)cc4)c3)CC2)n1 [Example 51, 1-(4-(3-(4-fluorophenoxy)-benzyl)piperazine-1-carbonyl)-1H-pyrazole-3-carboxylic acid] |
| < 0.1 | CN(Cc1cc(Cl)ccc1C(F)(F)F)CC1CCN(C(=O)n2cc(Cl)c(C(=O)O)n2)CC1 [Example 54, 4-chloro-1-(4-(((5-chloro-2-(trifluoromethyl)-benzyl)(methyl)-amino)-methyl)piperidine-1-carbonyl)-1H-pyrazole-3-carboxylic acid] |
| < 0.1 | CN(Cc1cc(Cl)ccc1C(F)(F)F)C1CCN(C(=O)n2ccc(C(=O)O)n2)CC1 [Example 81, 1-(4-((5-chloro-2-(trifluoromethyl)-benzyl)-(methyl)amino)-piperidine-1-carbonyl)-1H-pyrazole-3-carboxylic acid] |
| < 0.1 | O=C(O)c1ccn(C(=O)N2CCN(Cc3ccc(C(F)(F)F)cc3N3CCCC3)CC2)n1 [Example 83, 1-(4-(2-(pyrrolidin-1-yl)-4-(trifluoromethyl)-benzyl)-piperazine-1-carbonyl)-1H-pyrazole-3-carboxylic acid] |

More lines, now with the values behind:

| Compound | IC50 [µM] |
| --- | --- |
| Cc1cc(-c2ccccc2)ccc1CN1CCN(C(=O)n2ccc(C(=O)O)n2)CC1 [Example 16, 1-(4-((3-Methyl-[1,1′-biphenyl]-4-yl)methyl)piperazine-1-carbonyl)-1H-pyrazole-3-carboxylic acid] | < 0.1 |
| O=C(O)c1ccn(C(=O)N2CCN(Cc3cc(Cl)cc(Oc4ccc(Cl)cc4)c3)CC2)n1 [Example 19, 1-(4-(3-Chloro-5-(4-chlorophenoxy)benzyl)piperazine-1-carbonyl)-1H-pyrazole-3-carboxylic Acid] | < 0.1 |
| NC(=O)c1ccn(C(=O)N2CCC3(CCCN3Cc3cc4ccc(C(F)(F)F)cc4s3)CC2)n1 [Example 22, 1-(1-((6-(Trifluoromethyl)benzo[b]thiophen-2-yl)methyl)-1,8-diazaspiro[4.5]decane-8-carbonyl)-1H-pyrazole-3-carboxamide] | < 0.1 |
| O=C(O)c1nn(C(=O)N2CCC3(CCN(Cc4cccc(Cl)c4C(F)(F)F)C3)CC2)cc1Cl [Example 26, 4-Chloro-1-(2-(3-chloro-2-(trifluoromethyl)benzyl)-2,8-diazaspiro[4.5]decane-8-carbonyl)-1H-pyrazole-3-carboxylic Acid] | < 0.1 |
| O=C(O)c1ccn(C(=O)N2C[C@H]3C[C@H](OCc4cccc(C5CCCC5)c4)C[C@H]3C2)n1 [Example 34, 1-(trans-5-((3-Cyclopentylbenzyl)oxy)octahydrocyclopenta[c]pyrrole-2-carbonyl)-1H-pyrazole-3-carboxylic Acid] | < 0.1 |
| CC(C)(O)CN(Cc1cccc(C(F)(F)F)c1)C1CCN(C(=O)n2ccc(C(N)=O)n2)CC1 [Example 36, 1-(4-((2-Hydroxy-2-methylpropyl)(3-(trifluoromethyl)benzyl)amino)piperidine-1-carbonyl)-1H-pyrazole-3-carboxamide] | < 0.1 |
| CC(C)(O)COc1cccc(CN2CCN(C(=O)n3ccc(C(N)=O)n3)CC2)c1Cl [Example 37, 1-(4-(2-Chloro-3-(2-hydroxy-2-methylpropoxy)benzyl)piperazine-1-carbonyl)-1H-pyrazole-3-carboxamide] | < 0.1 |
| CC(C)(O)COc1cccc(CO[C@H]2C[C@@H]3CN(C(=O)n4ccc(C(=O)O)n4)C[C@@H]3C2)c1Cl [Example 38, 1-(trans-5-((2-Chloro-3-(2-hydroxy-2-methylpropoxy)benzyl)oxy)octahydrocyclopenta[c]pyrrole-2-carbonyl)-1H-pyrazole-3-carboxylic Acid] | < 0.1 |
| O=C(O)c1ccn(C(=O)N2CCC3(CCN(Cc4cc(Cl)ccc4C(F)(F)F)C3)CC2)n1 [Example 43, 1-(2-(5-chloro-2-(trifluoromethyl)-benzyl)-2,8-diazaspiro[4.5]-decane-8-carbonyl)-1H-pyrazole-3-carboxylic acid] | < 0.1 |
| O=C(O)c1ccn(C(=O)N2CCN(Cc3ccc(Oc4ccc(Cl)cc4)cc3)CC2)n1 [Example 45, 1-(4-(4-(4-chlorophenoxy)-benzyl)piperazine-1-carbonyl)-1H-pyrazole-3-carboxylic acid] | < 0.1 |
| O=C(O)c1ccn(C(=O)N2C[C@H]3C[C@H](OCc4cc(F)cc(Cl)c4)C[C@H]3C2)n1 [Example 53, 1-(trans-5-((3-chloro-5-fluorobenzyl)oxy)-octahydrocyclopenta-[c]pyrrole-2-carbonyl)-1H-pyrazole-3-carboxylic acid] | < 0.1 |
| O=C(O)c1ccn(C(=O)N2CCN(Cc3cccc(Oc4cc(C(F)(F)F)ccn4)c3)CC2)n1 [Example 57, 1-(4-(3-((4-(trifluoromethyl)-pyridin-2-yl)oxy)benzyl)-piperazine-1-carbonyl)-1H-pyrazole-3-carboxylic acid] | < 0.1 |
| O=C(O)c1ccn(C(=O)N2CCN(Cc3cccc(Oc4ccc(C(F)(F)F)cn4)c3)CC2)n1 [Example 61, 1-(4-(3-((5-(trifluoromethyl)-pyridin-2-yl)oxy)benzyl)-piperazine-1-carbonyl)-1H-pyrazole-3-carboxylic acid] | < 0.1 |
| O=C(O)c1ccn(C(=O)N2CCC3(CCN(Cc4cc(Cl)cc(C(F)(F)F)c4)C3)CC2)n1 [Example 72, 1-(2-(3-chloro-5-(trifluoromethyl)-benzyl)-2,8-diazaspiro[4.5]-decane-8-carbonyl)-1H-pyrazole-3-carboxylic acid] | < 0.1 |
| O=C(O)c1ccn(C(=O)N2CCC3(CCN(Cc4ccc(C(F)(F)F)cc4Cl)C3)CC2)n1 [Example 77, 1-(2-(2-chloro-4-(trifluoromethyl)-benzyl)-2,8-diazaspiro[4.5]-decane-8-carbonyl)-1H-pyrazole-3-carboxylic acid] | < 0.1 |
| O=C(O)c1ccn(C(=O)N2CCN(Cc3cccc(Oc4cccc(Cl)c4)c3)CC2)n1 [Example 84, 1-(4-(3-(3-chlorophenoxy)-benzyl)-piperazine-1-carbonyl)-1H-pyrazole-3-carboxylic acid] | < 0.1 |
